Assay results published in publication PMC6414696 (mBio, 2019).
Read-outs that look alike come from different tables or passages of the source.

What was measured:
OXA-48 = conditions: cited from earlier work
OXA-10 = conditions: cited from earlier work
OXA 24/40 = conditions: cited from earlier work
OXA-66 β-lactamase = OXA-66 β-lactamase (Acinetobacter baumannii, UniProt Q58XD2); experiment: β-Lactamase steady-state kinetic analysis, OXA-66; format: biochemical, A. baumannii
KPC-2 β-lactamase = conditions: cited from earlier work
A. baumannii ARC5955 = experiment: Neutropenic murine thigh infection model; format: in vivo; conditions: thigh tissue, CD-1 mice, 24 h after initiation of therapy
OXA-58 β-lactamase [1] = biological target: T1, OXA-58 β-lactamase (Acinetobacter baumannii, UniProt Q2TR58); experiment: β-Lactamase steady-state kinetic analysis, OXA-58; format: biochemical, Acinetobacter spp.
T1 sequence (Q2TR58 22-280): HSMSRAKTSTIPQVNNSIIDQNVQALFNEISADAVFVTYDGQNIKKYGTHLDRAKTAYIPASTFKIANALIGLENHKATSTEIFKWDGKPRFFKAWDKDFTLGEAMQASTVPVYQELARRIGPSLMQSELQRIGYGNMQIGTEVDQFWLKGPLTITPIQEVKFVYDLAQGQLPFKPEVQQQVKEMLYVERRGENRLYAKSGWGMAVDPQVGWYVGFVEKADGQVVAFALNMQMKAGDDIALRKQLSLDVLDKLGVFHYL

OXA-23 = conditions: cited from earlier work
OXA-58 β-lactamase [2] = biological target: T1, OXA-58 β-lactamase; experiment: OXA-58 acyl-transfer experiment (mass spectrometry), KPC-2 as recipient; format: biochemical; conditions: 10 µM each, 15 s to 24 h
ADC-7 β-lactamase = ADC-7 β-lactamase (Acinetobacter baumannii, UniProt Q6DRA1); experiment: β-Lactamase steady-state kinetic analysis, ADC-7; format: biochemical, A. baumannii
OXA-24/40 = conditions: cited from earlier work
[3] = test system: A. baumannii clinical isolates; experiment: Broth microdilution MIC susceptibility testing against carbapenems; format: cell-based, Acinetobacter baumannii
[4] = read-out: koff (residence time)
[5] = range given jointly for several OXA enzymes
[6] = Acinetobacter baumannii, strain CCF 1MR
[7] = Acinetobacter baumannii, strain CCF 2MR
[8] = Acinetobacter baumannii, strain CCF 3MR
[9] = Acinetobacter baumannii, strain CCF 4MR
[10] = Acinetobacter baumannii, strain CCF 5MR
[11] = Acinetobacter baumannii, strain CCF 6MR
[12] = Acinetobacter baumannii, strain CCF 7MR
[13] = Acinetobacter baumannii, strain CCF 8MR
[14] = Acinetobacter baumannii, strain UH AB202
[15] = Acinetobacter baumannii, strain UH AB461
[16] = Acinetobacter baumannii, strain UH AB477
[17] = Acinetobacter baumannii, strain UH AB487
[18] = Acinetobacter baumannii, strain UH AB489
[19] = Acinetobacter baumannii, strain UH AB490
[20] = Acinetobacter baumannii, strain UH AB491
[21] = Acinetobacter baumannii, strain UH AB636
[22] = Acinetobacter baumannii, strain UH AB660
[23] = Acinetobacter baumannii, strain UH AB667
[24] = Acinetobacter baumannii, strain VA-432
[25] = Acinetobacter baumannii, strain VA-433
[26] = Acinetobacter baumannii, strain VA-434
[27] = Acinetobacter baumannii, strain VA-435
[28] = Acinetobacter baumannii, strain VA-436
[29] = Acinetobacter baumannii, strain VA-437
[30] = Acinetobacter baumannii, strain VA-438
[31] = Acinetobacter baumannii, strain VA-505

Chain of OXA-66 β-lactamase (Q58XD2 entry or part of it): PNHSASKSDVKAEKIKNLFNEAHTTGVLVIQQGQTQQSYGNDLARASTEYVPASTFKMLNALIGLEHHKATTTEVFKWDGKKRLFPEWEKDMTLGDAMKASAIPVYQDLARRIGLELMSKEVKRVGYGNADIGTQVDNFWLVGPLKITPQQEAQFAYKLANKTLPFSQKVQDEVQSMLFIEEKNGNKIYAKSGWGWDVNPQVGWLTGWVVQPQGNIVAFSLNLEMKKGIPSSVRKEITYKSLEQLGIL

CC1=C[C@@H]2CN(C(=O)N2OS(=O)(=O)O)[C@@H]1C(N)=O [ETX2514]
390 ± 40 nM: Ki (OXA-58 β-lactamase [1])
2.2 log10 CFU/g: Change in log10 CFU/g (A. baumannii ARC5955; 50 mg/kg SC/q3h, 50 mg/kg)
1 ± 0.1 nM: Kd (ADC-7 β-lactamase)
0.0008 ± 1e-08 s⁻¹: koff (ADC-7 β-lactamase; [4])
190 nM: IC50 (OXA 24/40)
8 ± 2 × 10^5 M^−1 s^−1: k2/Ki (OXA-48)
0.00016 s⁻¹: koff (OXA-58 β-lactamase [1]; [4])
did not transfer to KPC-2: acyl transfer from acylated OXA-58 to KPC-2 (OXA-58 β-lactamase [2])
1e+06 ± 1e+11 M⁻¹ s⁻¹: kinact/KI (ADC-7 β-lactamase; pH 7.4, read-out: k2/Ki)
5 to 9 × 10^3 M^−1 s^−1: k2/Ki (acylation rate) (OXA-23; [5]) | k2/Ki (acylation rate) (OXA-24/40; [5]) | k2/Ki (OXA-10; OXA-10, range given jointly for several OXA enzymes)
110 ± 10 nM: Ki (ADC-7 β-lactamase)
8.8 log10 CFU/g: Log10 CFU/g (A. baumannii ARC5955; 50 mg/kg SC/q3h)
1.0 ± 0.1 × 10^−3 s^−1: koff (KPC-2 β-lactamase)
250000 ± 3e+09 M⁻¹ s⁻¹: kinact/KI (OXA-58 β-lactamase [1]; pH 7.4, read-out: k2/Ki)
1 ± 0.2 nM: Kd (OXA-58 β-lactamase [1])
9.3 ± 0.6 × 10^5 M^−1 s^−1: k2/Ki (KPC-2 β-lactamase)
43000 ± 4000 nM: Ki (OXA-66 β-lactamase)

C[C@@H](O)[C@H]1C(=O)N2C(C(=O)O)=C(SCCN=CN)C[C@H]12 [Imipenem]
64 µg/mL: MIC [3, 26] | MIC [3, 28]
32 µg/mL: MIC [3, 24] | MIC [3, 27] | MIC [3, 29] | MIC [3, 31]
16 µg/mL: MIC [3, 25] | MIC [3, 30]
> 8 µg/mL: MIC [3, 6] | MIC [3, 7] | MIC [3, 8] | MIC [3, 9] | MIC [3, 10] | MIC [3, 11] | MIC [3, 12] | MIC [3, 13] | MIC [3, 14] | MIC [3, 15] | MIC [3, 16] | MIC [3, 17] | MIC [3, 18] | MIC [3, 19] | MIC [3, 20] | MIC [3, 21] | MIC [3, 22] | MIC [3, 23]

C[C@@H](O)[C@H]1C(=O)N2C(C(=O)O)=C(S[C@@H]3CN[C@H](C(=O)N(C)C)C3)[C@H](C)[C@H]12 [Meropenem]
24%: isolates resistant (R ≥ 8 according to CLSI) ([3]; 72 WRAMC isolates (seventeen of 72))
4 µg/mL: MIC ([3]; Acinetobacter baumannii, strain AB006) | MIC ([3]; Acinetobacter baumannii, strain AB042)
> 8 µg/mL: MIC [3, 6] | MIC [3, 7] | MIC [3, 8] | MIC [3, 9] | MIC [3, 10] | MIC [3, 11] | MIC [3, 12] | MIC [3, 13] | MIC [3, 14] | MIC [3, 15] | MIC [3, 16] | MIC [3, 17] | MIC [3, 18] | MIC [3, 19] | MIC [3, 20] | MIC [3, 21] | MIC [3, 22] | MIC [3, 23]
2 µg/mL: MIC ([3]; Acinetobacter baumannii, strain AB002) | MIC ([3]; Acinetobacter baumannii, strain AB003) | MIC ([3]; Acinetobacter baumannii, strain AB004) | MIC ([3]; Acinetobacter baumannii, strain AB015) | MIC ([3]; Acinetobacter baumannii, strain AB023) | MIC ([3]; Acinetobacter baumannii, strain AB052) | MIC ([3]; Acinetobacter baumannii, strain AB053) | MIC ([3]; Acinetobacter baumannii, strain AB058) | MIC ([3]; Acinetobacter baumannii, strain AB070)
64 µg/mL: MIC ([3]; Acinetobacter baumannii, strain AB062) | MIC [3, 24] | MIC [3, 26] | MIC [3, 27] | MIC [3, 28]
0.5 µg/mL: MIC ([3]; Acinetobacter baumannii, strain AB007) | MIC ([3]; Acinetobacter baumannii, strain AB016) | MIC ([3]; Acinetobacter baumannii, strain AB017) | MIC ([3]; Acinetobacter baumannii, strain AB018) | MIC ([3]; Acinetobacter baumannii, strain AB020) | MIC ([3]; Acinetobacter baumannii, strain AB021) | MIC ([3]; Acinetobacter baumannii, strain AB022) | MIC ([3]; Acinetobacter baumannii, strain AB024) | MIC ([3]; Acinetobacter baumannii, strain AB025) | MIC ([3]; Acinetobacter baumannii, strain AB027) | MIC ([3]; Acinetobacter baumannii, strain AB028) | MIC ([3]; Acinetobacter baumannii, strain AB029) | MIC ([3]; Acinetobacter baumannii, strain AB032) | MIC ([3]; Acinetobacter baumannii, strain AB036) | MIC ([3]; Acinetobacter baumannii, strain AB040) | MIC ([3]; Acinetobacter baumannii, strain AB041) | MIC ([3]; Acinetobacter baumannii, strain AB063) | MIC ([3]; Acinetobacter baumannii, strain AB071)
8 µg/mL: MIC ([3]; Acinetobacter baumannii, strain AB044) | MIC ([3]; Acinetobacter baumannii, strain AB045) | MIC ([3]; Acinetobacter baumannii, strain AB047) | MIC ([3]; Acinetobacter baumannii, strain AB055)
16 µg/mL: MIC ([3]; Acinetobacter baumannii, strain AB043) | MIC ([3]; Acinetobacter baumannii, strain AB046) | MIC ([3]; Acinetobacter baumannii, strain AB048) | MIC ([3]; Acinetobacter baumannii, strain AB050) | MIC ([3]; Acinetobacter baumannii, strain AB056)
1 µg/mL: MIC50 ([3]; Acinetobacter baumannii) | MIC ([3]; Acinetobacter baumannii, strain AB001) | MIC ([3]; Acinetobacter baumannii, strain AB005) | MIC ([3]; Acinetobacter baumannii, strain AB008) | MIC ([3]; Acinetobacter baumannii, strain AB009) | MIC ([3]; Acinetobacter baumannii, strain AB010) | MIC ([3]; Acinetobacter baumannii, strain AB011) | MIC ([3]; Acinetobacter baumannii, strain AB012) | MIC ([3]; Acinetobacter baumannii, strain AB013) | MIC ([3]; Acinetobacter baumannii, strain AB014) | MIC ([3]; Acinetobacter baumannii, strain AB026) | MIC ([3]; Acinetobacter baumannii, strain AB030) | MIC ([3]; Acinetobacter baumannii, strain AB031) | MIC ([3]; Acinetobacter baumannii, strain AB033) | MIC ([3]; Acinetobacter baumannii, strain AB034) | MIC ([3]; Acinetobacter baumannii, strain AB038) | MIC ([3]; Acinetobacter baumannii, strain AB039) | MIC ([3]; Acinetobacter baumannii, strain AB051) | MIC ([3]; Acinetobacter baumannii, strain AB068) | MIC ([3]; Acinetobacter baumannii, strain AB069)
0.25 µg/mL: MIC ([3]; Acinetobacter baumannii, strain AB019) | MIC ([3]; Acinetobacter baumannii, strain AB035) | MIC ([3]; Acinetobacter baumannii, strain AB037) | MIC ([3]; Acinetobacter baumannii, strain AB064) | MIC ([3]; Acinetobacter baumannii, strain AB066) | MIC ([3]; Acinetobacter baumannii, strain AB067) | MIC ([3]; Acinetobacter baumannii, strain AB072)
32 µg/mL: MIC90 ([3]; Acinetobacter baumannii) | MIC ([3]; Acinetobacter baumannii, strain AB049) | MIC ([3]; Acinetobacter baumannii, strain AB054) | MIC ([3]; Acinetobacter baumannii, strain AB057) | MIC ([3]; Acinetobacter baumannii, strain AB059) | MIC ([3]; Acinetobacter baumannii, strain AB060) | MIC ([3]; Acinetobacter baumannii, strain AB061) | MIC ([3]; Acinetobacter baumannii, strain AB065) | MIC [3, 25] | MIC [3, 29] | MIC [3, 30] | MIC [3, 31]

N#CC1CC[C@@H]2CN1C(=O)N2OS(=O)(=O)O (some centres unmarked) [WCK 4234]
1.7 ± 0.2 × 10^4 M^−1 s^−1: k2/Ki (OXA-23)
9.6 ± 1 × 10^3 M^−1 s^−1: k2/Ki (OXA-24/40)

CC1=C[C@@H](C(N)=O)N2C[C@@H]1N(OS(=O)(=O)O)C2=O [compound 3]
360 nM: IC50 (OXA 24/40)

Colistin
−1.4 log10 CFU/g: Change in log10 CFU/g (A. baumannii ARC5955; 40 mg/kg SC/q24h, 40 mg/kg)
5.3 log10 CFU/g: Log10 CFU/g (A. baumannii ARC5955; 40 mg/kg SC/q24h)
−1.36 log10 CFU/g: Change in log10 CFU/g (A. baumannii ARC5955; 40 mg/kg SC/q24h, listed as colistin, 40 mg/kg)
